{"source": "patent US20260183437A1", "about": "“VHH ANTIBODY CONJUGATES WITH HETEROARYL CHELATORS” (ABDERA THERAPEUTICS INC., priority 2022, published 2026)", "key": {"[1]": {"system": "HEK293-6E", "assay": "ABC (Antibody Binding Capacity) assay, receptor density", "format": "cell-based", "description": "(§1) In order to test efficacy of the immunoconjugate binding with respect to target density receptor density was measured on target positive cell lines. Target density was measured using the ABC (Antibody Binding Capacity) assay. Cancer cells expressing the target of interest, as well as a negative control cell line, were harvested with cell dissociation buffer, seeded at about 5×10^4 cells per well into 96-well V bottom plate (Sarstedt 82.1583.001). Cells were tested for receptor expression using QuantiBRITE PE beads (BD Cat #340495) and a PE-conjugated anti-hu IgG (Biolegend clone HP6017) following the manufacturers' instructions. In brief, VHH-Fc and isotype control antibodies were prepared at suitable saturating concentrations based on previous experiments. Antibody sample dilutions were incubated with the panel of cell lines on ice for 1 hour. Cells were washed twice with 1% FBS in 1×PBS (FACS buffer), centrifuged at 400 G for 4 min. Cells were then incubated with 4 μg/mL mouse PE-conjugated anti-hu and DAPI (1:1000) for 30 minutes on ice. Cells were washed twice with FACS buffer, centrifuged at 400 G for 4 minutes and resuspended in FACS buffer. Fluorescence intensity on the PE channel was measured on the iQue Screener platform, and data were processed with ForeCyt software. The amount of PE signal generated from the different primary antibody was then fit to a standard curve based off of known PE molecules/Quantibrite bead samples to determine the number of antibody-binding sites per cell. Relative antibody binding sites correlate to the number of antigens or receptors on cell surface."}, "[2]": {"system": "HEK-DLL3", "assay": "ABC (Antibody Binding Capacity) assay, receptor density", "format": "cell-based", "description": "as §1"}, "[3]": {"system": "SHP-77", "assay": "ABC (Antibody Binding Capacity) assay, receptor density", "format": "cell-based", "description": "as §1"}, "[4]": {"system": "HCT-116", "assay": "ABC (Antibody Binding Capacity) assay, receptor density", "format": "cell-based", "description": "as §1"}, "[5]": {"system": "BT474", "assay": "ABC (Antibody Binding Capacity) assay, receptor density", "format": "cell-based", "description": "as §1"}, "[6]": {"biological_target": "T1, FcγRIIIa (V176) (Homo sapiens, UniProt P08637, F176V)", "T1 construct": "purchased Acro Biosystems", "T1 sequence (P08637 17-208 F176V limits assumed)": "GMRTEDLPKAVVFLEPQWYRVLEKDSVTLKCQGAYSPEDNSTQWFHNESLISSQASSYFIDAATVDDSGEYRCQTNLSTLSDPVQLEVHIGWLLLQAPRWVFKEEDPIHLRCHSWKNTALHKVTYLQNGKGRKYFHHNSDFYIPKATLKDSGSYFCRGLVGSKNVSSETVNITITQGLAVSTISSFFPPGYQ", "assay": "FcγR affinity by biolayer interferometry (Octet Red96e)", "format": "binding", "description": "(§2) VHH-Fcs were also tested for affinity to FcγRs by biolayer interferometry using the Octet Red96e platform. Each cycle is performed with orbital shake speed of 1,000 rpm. Streptavidin (SA) biosensors (Sartorius 18-5019) were rehydrated for 10 mins using kinetics buffer (PBS+0.1% BSA+0.02% Tween-20). Biotinylated-FcγRs (Acro Biosystems) were then loaded for 40-100 s onto SA biosensors at concentrations ranging between 1-5 μg/mL diluted in PBS. VHH-Fcs were serially diluted 1:2 in sample buffer (PBS+0.02% Tween-20) with starting concentrations ranging between 5000 nM to 37.5 nM. Loaded biosensors were then associated with VHH-Fcs for 60-120 s. VHH-Fc dissociation was measured for 30-900 s in sample buffer. Bound VHH-Fcs were then removed using 3 cycles of 5 s regeneration buffer (150 mM NaCl, 300 mM Sodium Citrate) and 5 s sample buffer. The data was analyzed either using a globally-fitted 1:1 Langmuir binding model (FcγRI) or steady state analysis (Octet software version HT v11.1)."}, "[7]": {"biological_target": "T2, FcγRIIa (H167) (Homo sapiens, UniProt P12318)", "T2 construct": "purchased Acro Biosystems", "T2 sequence (P12318 36-218 limits assumed)": "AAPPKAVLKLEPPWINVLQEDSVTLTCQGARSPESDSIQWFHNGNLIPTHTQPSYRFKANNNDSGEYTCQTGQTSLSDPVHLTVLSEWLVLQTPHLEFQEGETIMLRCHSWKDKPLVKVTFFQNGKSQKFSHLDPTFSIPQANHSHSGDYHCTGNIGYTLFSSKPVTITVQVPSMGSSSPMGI", "assay": "FcγR affinity by biolayer interferometry (Octet Red96e)", "format": "binding", "description": "as §2"}, "[8]": {"biological_target": "T3, FcγRIIIa (F176) (Homo sapiens, UniProt P08637)", "T3 construct": "purchased Acro Biosystems", "T3 sequence (P08637 17-208 limits assumed)": "as the sequence (P08637 17-208 F176V limits assumed) above, with V160F counted along it", "assay": "FcγR affinity by biolayer interferometry (Octet Red96e)", "format": "binding", "description": "as §2"}, "[9]": {"biological_target": "T4, FcγRI (Homo sapiens, UniProt P12314)", "T4 construct": "purchased Acro Biosystems", "T4 sequence (P12314 16-374)": "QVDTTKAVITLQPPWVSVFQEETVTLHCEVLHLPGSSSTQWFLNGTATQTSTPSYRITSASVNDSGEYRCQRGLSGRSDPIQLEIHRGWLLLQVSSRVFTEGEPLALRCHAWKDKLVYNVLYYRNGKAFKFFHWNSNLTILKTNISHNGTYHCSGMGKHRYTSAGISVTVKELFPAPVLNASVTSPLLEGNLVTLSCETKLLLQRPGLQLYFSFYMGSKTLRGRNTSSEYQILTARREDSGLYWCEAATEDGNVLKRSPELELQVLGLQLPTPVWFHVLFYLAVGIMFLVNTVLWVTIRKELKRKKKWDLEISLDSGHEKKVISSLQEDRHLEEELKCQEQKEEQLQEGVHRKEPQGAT", "assay": "FcγR affinity by biolayer interferometry (Octet Red96e)", "format": "binding", "description": "as §2"}, "[10]": {"biological_target": "T5, FcγRIIa (R167) (Homo sapiens, UniProt P12318, H167R)", "T5 construct": "purchased Acro Biosystems", "T5 sequence (P12318 36-218 H167R limits assumed)": "T2 sequence (P12318 36-218 limits assumed) with H132R", "assay": "FcγR affinity by biolayer interferometry (Octet Red96e)", "format": "binding", "description": "as §2"}, "[11]": {"biological_target": "T6, FcγRIIb/c (Homo sapiens, UniProt P31994)", "T6 construct": "purchased Acro Biosystems", "T6 sequence (P31994 43-310)": "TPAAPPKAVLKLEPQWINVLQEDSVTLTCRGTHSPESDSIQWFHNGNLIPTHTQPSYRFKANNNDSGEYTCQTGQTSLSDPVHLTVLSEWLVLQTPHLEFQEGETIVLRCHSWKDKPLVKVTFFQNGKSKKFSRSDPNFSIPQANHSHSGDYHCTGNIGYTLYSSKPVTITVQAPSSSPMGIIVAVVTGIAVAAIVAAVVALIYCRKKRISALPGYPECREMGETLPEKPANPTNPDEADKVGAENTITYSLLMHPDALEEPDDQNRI", "assay": "FcγR affinity by biolayer interferometry (Octet Red96e)", "format": "binding", "description": "as §2"}, "[12]": {"system": "HEK-DLL3 cells", "assay": "Internalization assay (pHAb dye labelled secondary antibody, flow cytometry)", "format": "cell-based", "details": "75 nM, 37° C.", "description": "(§3) VHH-Fcs were tested for internalization by target-expressing cells using a secondary antibody conjugated to a pH sensitive dye. Goat anti-hu IgG-Fc secondary antibody was amine-conjugated to a pH sensitive pHAb dye (Promega Cat #G9845) according to the manufacturer's instructions. The pHAb dye has low or no fluorescence at pH>7 but fluoresces in acidic environment upon antibody internalization. […] VHH-Fcs and hIgG1 isotype control were diluted in media to 75 nM. Cells were spun to remove supernatant, resuspended with the prepared primary antibodies and incubated on ice for 1 hour. Excess primary antibody was washed off from cells and then incubated with pHAb labelled secondary antibody on ice for 30 minutes. Excess secondary was then washed off and cells were resuspended in media. One set of samples was placed in an incubator at 37° C. to allow internalization, and another set was left on ice (0° C.) as a binding only control. Cells were sampled at different time points ranging from 0 to 24 hours. Cells were stained with DAPI and read by flow cytometry on 572/28 channel with iQue screener platform. The VHH-Fcs show higher fluorescence than the negative controls (isotype, buffer) on target-positive cells."}, "[13]": {"system": "SHP-77 cells", "assay": "Internalization assay (pHAb dye labelled secondary antibody, flow cytometry)", "format": "cell-based", "details": "75 nM, 37° C.", "description": "as §3"}}, "note": "Residue numbers refer to the chain shown, from its start.", "data": [{"substance": "H101: anti-HER2 VHH-Fc (2RS15d VHH, human IgG1 Fc); FcRn wt, Fc effector wt [Compound H101]", "values": [{"measurement": "Estimated number of epitopes/cell", "setting": "[1]", "result": 1935, "unit": "epitopes/cell"}, {"measurement": "Estimated number of epitopes/cell", "setting": "[2]", "result": 1490, "unit": "epitopes/cell"}, {"measurement": "Estimated number of epitopes/cell", "setting": "[3]", "result": 572, "unit": "epitopes/cell"}, {"measurement": "Estimated number of epitopes/cell", "setting": "[4]", "result": 2604, "unit": "epitopes/cell"}, {"measurement": "Estimated number of epitopes/cell", "setting": "[5]", "result": 401604, "unit": "epitopes/cell"}, {"measurement": "Kd", "setting": "[6]", "result": 480, "unit": "nM"}, {"measurement": "Kd", "setting": "[7]", "result": 340, "unit": "nM"}, {"measurement": "Kd", "setting": "[8]", "result": 1600, "unit": "nM"}, {"measurement": "Kd", "setting": "[9]", "result": 1.01, "unit": "nM"}, {"measurement": "Kd", "setting": "[10]", "result": 160, "unit": "nM"}, {"measurement": "Kd", "setting": "[11]", "result": 450, "unit": "nM"}, {"measurement": "Internalization", "setting": "[12]", "result": "internalized"}, {"measurement": "Internalization", "setting": "[13]", "result": "internalized"}]}]}
